# In patent US10342796B2, “Acrylanilide derivative, preparation method, and applications thereof in pharmacy” (Ancureall Pharmaceutical (Shanghai) Co., Ltd., priority 2015, dated 2019):
# Assays:
# Assay in all cases: Growth inhibition GI50 in vitro (CCK8/MTT, 72 h)
# Format in all cases: cell-based, human
# [1] = test system: A549 (EGFR WT); conditions: Homo sapiens, A549; Table 13, 72 h; read-out: Range of GI50 A549 (EGFR WT)
# Excerpt: EGFR wild type cell lines: human epidermal cancer cell line A431 (EGFR WT, amplification and high expression, from Shanghai Cell Bank of Chinese Academy of Sciences and ATCC), NSCLC cell lines NCI-H460 (EGFR WT, Kras G61H and PI3KCA E545K mutants, ATCC) and NCI-H1299 (EGFR WT, ATCC), melanoma cell line A375 (EGFR WT and BRAF V600E mutant, from Shanghai Cell Bank of Chinese Academy of Sciences, ATCC), human lung cancer cell line NCI-H292 (EGFR WT, from human lung mucoepidermoid carcinoma/lymphatic metastasis, purchased from Shanghai Cell Bank of Chinese Academy of Sciences) were cultured with 1×RPMI1640 complete medium which was supplement with 10% FBS. NSCLC cell line A549 (EGFR WT and Kras G12S mutant, from Shanghai Cell Bank of Chinese Academy of Sciences) was cultured with 1×Ham'S F12K complete medium which was supplement with 10% FBS, 1% double-antibiotics and 2 mM glutamine.
# (§1) The suspension cells were collected by centrifugation. The supernatant was discard and the cell pellet was resuspended and counted. Different cell concentrations (5˜10×10^4 cells/mL) were prepared according to the growth cycle of each cell line and then seeded on a 96-well plate (Corning), 100 μL/well. The cells were incubated over night at 37° C., 5% CO2. The compounds were added to the cells on the second day with 2 wells in parallel. The final concentration of organic solvent shall not exceed 1%. The cells were continually incubated for 72 h, and then subjected to MTT assay.
# (§2) The present compounds and the reference compounds were dissolved with DMSO (Sigma), respectively. […] The storage concentration of compounds was 10 mM and kept at −20° C. They were diluted by 2 times or 10 times with serial dilution before using.
# (§3) Dojindo CCK8 reagent kit was used as MTT assay. […] FC meter was used as microplate reader.
# (§4) Adherent cell culture medium was discard and immediately replaced with fresh prepared medium which contains 10% CCK8 reagent (100 μL/well). For the suspension cells, CCK8 was directly added to 10% of the final concentration. The cells were continually incubated for 1˜4 h. When the color of control wells turned to dark yellow, the absorption value was measured at OD450 nm. The cell growth rate was calculated according to the following formula: cell growth rate (%)=100*(T−T0)/(C−T0), T=optical density of drug treatment cell well—optical density of blank control well; T0=optical density of cell well before drug treatment—optical density of blank control well; C=optical density of cell well of solvent control group—optical density of blank control well. […] The experiment was independently repeated 1˜3 times, and subject to biological statistical analysis.
# [2] = test system: N87 (HER2 Amp); conditions: Homo sapiens; Table 13, 72 h; read-out: Range of GI50 N87 (HER2 Amp)
# [3] = test system: PC-9 (EGFR dE746-A750); conditions: Homo sapiens; Table 13, 72 h; read-out: Range of GI50 PC-9 (EGFR dE746-A750)
# Procedure: (§5) PC-9ER is an acquired Erlotinib resistance cell line of PC-9 cells developed by the investor. […] The four cell lines above were cultured with 1×RPMI1640 complete medium (supplement with 10% FBS). Human colon cancer cell line SW48 (EGFR G719S positive, ATCC). was cultured with L15 complete medium (10% FB S).
# as §1, §2, §3, §4
# [4] = test system: H1975 (EGFR L858R/T790M); conditions: Homo sapiens, NCI-H1975; Table 13, 72 h; read-out: Range of GI50 H1975 (EGFR L858R/T790M)
# Procedure: as §5, §1, §2, §3, §4
Compound,GI50 [1] [nM],GI50 [3] [nM],GI50 [4] [nM],GI50 [2] [nM]
"C=CC(=O)Nc1cc(Nc2cc(Nc3cc(OC)c(Cl)cc3Cl)ncn2)c(OC)cc1N1CCN(C)CC1 [Compound 239, N-(5-(6-(2,4-dichloro-5-methoxyl-phenylamino)-pyrimidin-4-yl-amino)-2-(4-methyl-piperazin-1-yl)-4-methoxyl-phenyl)-acrylamide]",> 1000,< 10,10 to 100,10 to 100
"C=CC(=O)Nc1cc(Nc2cc(Nc3cc(OC)c(Cl)cc3Cl)ncn2)c(OC)cc1N1CCC(N2CCOCC2)CC1 [Compound 240, N-(5-(6-(2,4-dichloro-5-methoxyl-phenylamino)-pyrimidin-4-yl-amino)-2-(4-(morpholin-1-yl)-piperidin-1-yl)-4-methoxyl-phenyl)-acrylamide]",> 1000,< 10,10 to 100,< 10
C=CC(=O)Nc1cc(Nc2cc(Nc3cc(OC)c(Cl)cc3Cl)ncn2)c(OC)cc1OCCN1CCOCC1 [Compound 243],> 1000,10 to 100,10 to 100,10 to 100
"C=CC(=O)Nc1cc(Nc2cc(Nc3cc(OC)c(Cl)cc3Cl)ncn2)c(OC)cc1OCCN1CCCC1 [Compound 244, N-(5-(6-(2,4-dichloro-5-methoxyl-phenylamino)-pyrimidin-4-yl-amino)-2-(2-(pyrrolidin-1-yl)-ethoxyl)-4-methoxyl-phenyl)-acrylamide]",> 1000,10 to 100,10 to 100,10 to 100
C=CC(=O)Nc1cc(Nc2cc(Nc3cc(OC)c(Cl)cc3Cl)ncn2)c(OC)cc1OCCCN1CCCC1 [Compound 245],> 1000,10 to 100,10 to 100,10 to 100
C=CC(=O)Nc1cc(Nc2cc(Nc3cc(OC)c(Cl)cc3Cl)ncn2)c(OC)cc1OCCN1CCCCC1 [Compound 246],> 1000,10 to 100,10 to 100,10 to 100
"C=CC(=O)Nc1cc(Nc2cc(Nc3cc(OC)c(Cl)cc3Cl)ncn2)c(OC)cc1OCCN1CCN(C)CC1 [Compound 247, N-(5-(6-(2,4-dichloro-5-methoxyl-phenylamino)-pyrimidin-4-yl-amino)-2-(2-(4-methyl-piperazin-1-yl)-ethoxyl)-4-methoxyl-phenyl)-acrylamide]",> 1000,< 10,10 to 100,< 10
C=CC(=O)Nc1cc(Nc2cc(Nc3cc(OC)c(Cl)cc3Cl)ncn2)c(OC)cc1OCCCN1CCN(C)CC1 [Compound 248],> 1000,< 10,10 to 100,< 10
"C=CC(=O)Nc1cc(Nc2cc(Nc3ccc(OC(C)(C)C)c(Cl)c3)ncn2)c(OC)cc1N(C)CCN(C)C [Compound 250, N-(5-(6-(3-chloro-4-tert-butoxy-phenylamino)-pyrimidin-4-yl-amino)-2-((2-dimethylamino-ethyl)-methyl-amino)-4-methoxyl-phenyl)-acrylamide]",> 1000,< 10,10 to 100,< 10

# Second part, led by results:
GI50 [1] [nM],GI50 [3] [nM],GI50 [4] [nM],Compound,GI50 [2] [nM]
> 1000,10 to 100,10 to 100,"C=CC(=O)Nc1cc(Nc2cc(Nc3cc(F)c(OCCOC)c(Cl)c3)ncn2)c(OC)cc1N(C)CCN(C)C [Compound 237, N-(5-(6-(3-chloro-5-fluoro-4-(2-methoxyl-ethoxyl)-phenylamino)-pyrimidin-4-yl-amino)-2-((2-dimethylamino-ethyl)-methyl-amino)-4-methoxyl-phenyl)-acrylamide]",10 to 100
> 1000,100 to 1000,100 to 1000,C=CC(=O)Nc1cc(Nc2cc(Nc3ccc(OC)c(S(=O)(=O)NC)c3)ncn2)c(OC)cc1N(C)CCN(C)C [Compound 238],100 to 1000
> 1000,100 to 1000,100 to 1000,"C=CC(=O)Nc1cc(Nc2cc(Nc3cc(OC)c(Cl)cc3Cl)ncn2)c(OC)cc1N(C)CC(=O)N1CCN(C)CC1 [Compound 241, N-(5-(6-(2,4-dichloro-5-methoxyl-phenylamino)-pyrimidin-4-yl-amino)-2-(methyl-(2-(4-methyl-piperazin-1-yl)-2-oxoethyl)-amino)-4-methoxyl-phenyl)-acrylamide]",100 to 1000
> 1000,< 10,< 10,"C=CC(=O)Nc1cc(Nc2cc(Nc3cc(OC)c(Cl)cc3Cl)ncn2)c(OC)cc1OCCN(C)C [Compound 242, N-(5-(6-(2,4-dichloro-5-methoxyl-phenylamino)-pyrimidin-4-ylamino)-2-(2-dimethylamino-ethoxyl)-4-methoxyl-phenyl)-acrylamide]",< 10
> 1000,< 10,10 to 100,"C=CC(=O)Nc1cc(Nc2cc(N(C)c3cc(OC)c(Cl)cc3Cl)ncn2)c(OC)cc1N(C)CCN(C)C [Compound 249, N-(5-(6-((2,4-dichloro-5-methoxyl-phenyl)-methyl-amino)-pyrimidin-4-ylamino)-2-((2-dimethylamino-ethyl)-methyl-amino)-4-methoxyl-phenyl)-acrylamide]",< 10
> 1000,< 10,< 10,"C#Cc1cc(Nc2cc(Nc3cc(NC(=O)C=C)c(N(C)CCN(C)C)cc3OC)ncn2)ccc1OC [Compound 251, N-(5-(6-(3-acetenyl-4-methoxyl-phenylamino)-pyrimidin-4-yl-amino)-2-((2-dimethylamino-ethyl)-methyl-amino)-4-methoxyl-phenyl)-acrylamide]",< 10
> 1000,10 to 100,10 to 100,"C=CC(=O)Nc1cc(Nc2cc(Nc3ccc(OCC4(C)COC4)c(Cl)c3)ncn2)c(OC)cc1N(C)CCN(C)C [Compound 252, N-(5-(6-(3-chloro-4-(3-methyl-oxetan-3-yl-methoxyl)-phenylamino)-pyrimidin-4-yl-amino)-2-((2-dimethylamino-ethyl)-methyl-amino)-4-methoxyl-phenyl)-acrylamide]",10 to 100
> 1000,10 to 100,10 to 100,"C=CC(=O)Nc1cc(Nc2cc(Nc3ccc(O)c(Cl)c3)ncn2)c(OC)cc1N(C)CCN(C)C [Compound 253, N-(5-(6-(3-chloro-4-hydroxylphenylamino)-pyrimidin-4-ylamino)-2-((2-dimethylamino-ethyl)-methyl-amino)-4-methoxyl-phenyl)-acrylamide]",10 to 100
> 1000,10 to 100,10 to 100,"C=CC(=O)Nc1cc(Nc2cc(Nc3ccc(OCC4CCCO4)c(Cl)c3)ncn2)c(OC)cc1N(C)CCN(C)C (centres unmarked) [Compound 254, N-(5-(6-(3-chloro-4-(tetrahydrofuran-2-ylmethoxy)-phenylamino)-pyrimidin-4-ylamino)-2-((2-dimethylamino-ethyl)-methyl-amino)-4-methoxyl-phenyl)-acrylamide]",10 to 100
> 1000,10 to 100,10 to 100,"C=CC(=O)Nc1cc(Nc2cc(Nc3ccc(OC)c(C#N)c3)ncn2)c(OC)cc1N(C)CCN(C)C [Compound 255, N-(5-(6-(3-cyano-4-methoxyphenylamino)-pyrimidin-4-yl-amino)-2-((2-dimethylamino-ethyl)-methyl-amino)-4-methoxyl-phenyl)-acrylamide]",10 to 100
> 1000,10 to 100,10 to 100,"C=CC(=O)Nc1cc(Nc2cc(Nc3ccc(OC)c(C(C)=O)c3)ncn2)c(OC)cc1N(C)CCN(C)C [Compound 256, N-(5-(6-(3-acetyl-4-methoxyphenylamino)-pyrimidin-4-yl-amino)-2-((2-dimethylamino-ethyl)-methyl-amino)-4-methoxyl-phenyl)-acrylamide]",10 to 100
